Measured values published in patent US20150087673A1, “METHODS FOR USING AND BIOMARKERS FOR AMPK-ACTIVATING COMPOUNDS” (RIGEL PHARMACEUTICALS, INC., priority 2013, published 2015).

System: AMPK
Assay: AMPK activation assay (enzyme-linked immunosorbent assay)
Assay type: cell-based
In short: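 Activation by each compound is measured using a conventional commercial immunoassay kit.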

SMILES: N#Cc1ccc(CN2CCC(NC(=O)c3ccc(C(=O)N4CCN(C(=O)c5ccccc5)CC4)cn3)CC2)cc1 [Compound 80, 5-(4-benzoylpiperazine-1-carbonyl)-N-(1-(4-cyanobenzyl)piperidin-4-yl)picolinamide]
- EC50: 1 to 5 µM

SMILES: CC(C)(C)C(=O)N1CCN(C(=O)c2ccc(C(=O)NC3CCN(Cc4ccc(C#N)cc4)CC3)nc2)CC1 [Compound 81, N-(1-(4-cyanobenzyl)piperidin-4-yl)-5-(4-pivaloylpiperazine-1-carbonyl)picolinamide]
- EC50: 0.5 to 1 µM

SMILES: N#Cc1ccc(CN2CCC(NC(=O)c3ccc(C(=O)N4CCN(S(=O)(=O)c5ccccc5)CC4)cn3)CC2)cc1 [Compound 82, N-(1-(4-cyanobenzyl)piperidin-4-yl)-5-(4-(phenylsulfonyl)piperazine-1-carbonyl)picolinamide]
- EC50: 0.5 to 1 µM

SMILES: N#Cc1ccc(CN2CCC(NC(=O)c3ccc(C(=O)N4CCN(C5CCOCC5)CC4)cn3)CC2)cc1 [Compound 83, N-(1-(4-cyanobenzyl)piperidin-4-yl)-5-(4-(tetrahydro-2H-pyran-4-yl)piperazine-1-carbonyl)picolinamide]
- EC50: > 10 µM

SMILES: CC(C)N1CCN(C(=O)c2ccc(C(=O)NC3CCN(Cc4ccc(C#N)cc4)CC3)nc2)CC1 [Compound 84, N-(1-(4-cyanobenzyl)piperidin-4-yl)-5-(4-isopropylpiperazine-1-carbonyl)picolinamide]
- EC50: 1 to 5 µM

SMILES: Cc1cc(CN2CCN(C(=O)c3ccc(C(=O)NC4CCN(Cc5ccccc5)CC4)nc3)CC2)no1 [Compound 85, N-(1-benzylpiperidin-4-yl)-5-(4-((5-methylisoxazol-3-yl)methyl)piperazine-1-carbonyl)picolinamide]
- EC50: 1 to 5 µM

SMILES: N#Cc1ccc(CN2CCC(NC(=O)c3cccc(C(=O)NC4CCN(Cc5ccc(C#N)cc5)CC4)n3)CC2)cc1 [Compound 86, N2,N6-bis(1-(4-cyanobenzyl)piperidin-4-yl)pyridine-2,6-dicarboxamide]
- EC50: 1 to 5 µM

SMILES: O=C(NC1CCN(Cc2ccc(F)cc2)CC1)c1cccc(C(=O)NC2CCN(Cc3ccc(F)cc3)CC2)n1 [Compound 87, N2,N6-bis(1-(4-fluorobenzyl)piperidin-4-yl)pyridine-2,6-dicarboxamide]
- EC50: 1 to 5 µM

SMILES: O=C(c1ccc(C(=O)N2CCN(CCc3ccccc3)CC2)nc1)N1CCN(Cc2ccc(F)cc2)CC1 [Compound 88, (4-(4-fluorobenzyl)piperazin-1-yl)(6-(4-phenethylpiperazine-1-carbonyl)pyridin-3-yl)methanone]
- EC50: 1 to 5 µM

SMILES: N#Cc1ccc(CN2CCC(NC(=O)c3ccc(C(=O)N4CCN(C(=O)C5CCCCC5)CC4)cn3)CC2)cc1 [Compound 89, N-(1-(4-cyanobenzyl)piperidin-4-yl)-5-(4-(cyclohexanecarbonyl)piperazine-1-carbonyl)picolinamide]
- EC50: 1 to 5 µM

SMILES: O=C(c1ccc(C(=O)N2CCN(CCc3ccccc3)CC2)nc1)N1CCN(c2ccccc2)CC1 [Compound 90, (4-phenethylpiperazin-1-yl)(5-(4-phenylpiperazine-1-carbonyl)pyridin-2-yl)methanone]
- EC50: > 10 µM

SMILES: CC(C)N1CCN(C(=O)c2ccc(C(=O)N3CCN(CCc4ccccc4)CC3)nc2)CC1 [Compound 91, (4-isopropylpiperazin-1-yl)(6-(4-phenethylpiperazine-1-carbonyl)pyridin-3-yl)methanone]
- EC50: > 10 µM

SMILES: O=C(c1ccc(C(=O)N2CCN(CCc3ccccc3)CC2)nc1)N1CCN(CCc2ccccc2)CC1 [Compound 92, pyridine-2,5-diylbis((4-phenethylpiperazin-1-yl)methanone)]
- EC50: > 10 µM

SMILES: O=C(c1cccc(C(=O)N2CCN(Cc3ccc(F)cc3)CC2)n1)N1CCN(CCc2ccccc2)CC1 [Compound 93, (4-(4-fluorobenzyl)piperazin-1-yl)(6-(4-phenethylpiperazine-1-carbonyl)pyridin-2-yl)methanone]
- EC50: > 10 µM

SMILES: O=C(c1cccc(C(=O)N2CCN(c3ccccc3)CC2)n1)N1CCN(Cc2ccc(F)cc2)CC1 [Compound 94, (4-(4-fluorobenzyl)piperazin-1-yl)(6-(4-phenylpiperazine-1-carbonyl)pyridin-2-yl)methanone]
- EC50: > 10 µM

SMILES: N#Cc1ccc(CN2CCC(NC(=O)c3ccc(C(=O)N4CCN(CC5CCCCC5)CC4)cn3)CC2)cc1 [Compound 95, N-(1-(4-cyanobenzyl)piperidin-4-yl)-5-(4-(cyclohexylmethyl)piperazine-1-carbonyl)picolinamide]
- EC50: < 0.5 µM

SMILES: O=C(NC1CCN(Cc2ccccc2)CC1)c1ccc(C(=O)N2CCN(c3ccncc3)CC2)cn1 [Compound 96, N-(1-benzylpiperidin-4-yl)-5-(4-(pyridin-4-yl)piperazine-1-carbonyl)picolinamide]
- EC50: > 10 µM

SMILES: O=C(NC1CCN(Cc2ccccc2)CC1)c1ccc(C(=O)N2CCN(c3ccccc3)CC2)cn1 [Compound 97, N-(1-benzylpiperidin-4-yl)-5-(4-phenylpiperazine-1-carbonyl)picolinamide]
- EC50: 1 to 5 µM

SMILES: CCOC(=O)C(c1ccccc1)N1CCC(NC(=O)c2ccc(C(=O)N3CCN(Cc4ccc(F)cc4)CC3)cn2)CC1 (stereo not shown) [Compound 98, ethyl 2-(4-(5-(4-(4-fluorobenzyl)piperazine-1-carbonyl)picolinamido)piperidin-1-yl)-2-phenylacetate]
- EC50: 1 to 5 µM

SMILES: N#Cc1ccc(CC2CCC(NC(=O)c3cccc(C(=O)N4CCN(Cc5ccc(F)cc5)CC4)n3)CC2)cc1 (stereo not shown) [Compound 99, N-(4-(4-cyanobenzyl)cyclohexyl)-6-(4-(4-fluorobenzyl)piperazine-1-carbonyl)picolinamide]
- EC50: 5 to 10 µM

SMILES: N#Cc1ccc(CN2CC[C@@H](NC(=O)c3ccc(C(=O)N4CCN(Cc5ccc(F)cc5)CC4)cn3)[C@@H](F)C2)cc1 [Compound 100]
- EC50: < 0.5 µM

SMILES: COc1ccc(CN2CCN(C(=O)c3ccc(C(=O)NC4CCN(Cc5ccc(C#N)cc5)CC4)nc3)CC2)cc1 [Compound 101, N-(1-(4-cyanobenzyl)piperidin-4-yl)-5-(4-(4-methoxybenzyl)piperazine-1-carbonyl)picolinamide]
- EC50: < 0.5 µM

SMILES: N#Cc1ccc(CN2CCC(NC(=O)c3ccc(C(=O)N4CCN(Cc5ccncc5)CC4)cn3)CC2)cc1 [Compound 103, N-(1-(4-cyanobenzyl)piperidin-4-yl)-5-(4-(pyridin-4-ylmethyl)piperazine-1-carbonyl)picolinamide]
- EC50: < 0.5 µM

SMILES: O=C(Nc1ccc(-c2ccccc2)cc1)c1ccc(C(=O)NC2CCN(Cc3ccccc3)CC2)nc1 [Compound 105, N2-(1-benzylpiperidin-4-yl)-N5-(biphenyl-4-yl)pyridine-2,5-dicarboxamide]
- EC50: > 10 µM

SMILES: O=C(Nc1cccc(-c2ccccc2)c1)c1ccc(C(=O)NC2CCN(Cc3ccccc3)CC2)nc1 [Compound 106, N2-(1-benzylpiperidin-4-yl)-N5-(biphenyl-3-yl)pyridine-2,5-dicarboxamide]
- EC50: 5 to 10 µM

SMILES: O=C(Nc1ccccc1)c1ccc(C(=O)N2CCN(Cc3ccc(F)cc3)CC2)cn1 [Compound 107, 5-(4-(4-fluorobenzyl)piperazine-1-carbonyl)-N-phenylpicolinamide]
- EC50: 5 to 10 µM

SMILES: N#Cc1ccc(CN2CCC(NC(=O)c3ccc(Nc4ccc(Cc5ccccc5)cc4)cn3)CC2)cc1 [Compound 108, 5-(4-benzylphenylamino)-N-(1-(4-cyanobenzyl)piperidin-4-yl)picolinamide]
- EC50: 0.5 to 1 µM

SMILES: N#Cc1ccc(CN2CCC(NC(=O)c3ccc(Nc4ccc(-c5ccccc5)cc4)cn3)CC2)cc1 [Compound 109, 5-(biphenyl-4-ylamino)-N-(1-(4-cyanobenzyl)piperidin-4-yl)picolinamide]
- EC50: 5 to 10 µM
